{
  "source": "PubChem BioAssay AID1745844",
  "about": "(Carcinogenic Potency Database (CPDB), 2022)",
  "tested_on": "rodent lifetime carcinogenesis bioassay, tumor incidence TD50",
  "assay": "carcinogenic potency in animals, long-term in vivo studies, CPDB compilation (AID 1745844)",
  "note": "Calls of active or inactive are those of the source. The rule behind the calls is not given here.",
  "data": [
    {"smiles": "COc1cc2c(cc1N)oc1ccccc12", "values": [
      {"measurement": "TD50", "setting": "rat, strain Fischer, females, in feed, site: any site (literature study), lesion: malignant tumor, dosed 75 weeks, study length 75 weeks", "result": 33.1, "unit": "mg/kg/day"},
      {"measurement": "TD50", "setting": "rat, strain Fischer, females, in feed, site: external auditory canal, lesion: squamous-cell carcinoma, dosed 75 weeks, study length 75 weeks", "result": 43.9, "unit": "mg/kg/day"},
      {"measurement": "TD50", "setting": "rat, strain Fischer, females, in feed, site: mammary gland, lesion: adenocarcinoma, dosed 75 weeks, study length 75 weeks", "result": 205, "unit": "mg/kg/day"},
      {"measurement": "TD50", "setting": "rat, strain Fischer, females, in feed, site: urinary bladder, lesion: several types, types named in the paper, dosed 75 weeks, study length 75 weeks", "result": 25.7, "unit": "mg/kg/day"},
      {"measurement": "TD50", "setting": "rat, strain Fischer, females, in feed, site: urinary bladder, lesion: transitional-cell carcinoma, dosed 75 weeks, study length 75 weeks", "result": 43.9, "unit": "mg/kg/day"},
      {"measurement": "TD50", "setting": "rat, strain Fischer, males, in feed, site: any site (literature study), lesion: malignant tumor, dosed 75 weeks, study length 75 weeks", "result": 78.2, "unit": "mg/kg/day"},
      {"measurement": "TD50", "setting": "rat, strain Fischer, males, in feed, site: external auditory canal, lesion: squamous-cell carcinoma, dosed 75 weeks, study length 75 weeks", "result": 78.2, "unit": "mg/kg/day"},
      {"measurement": "TD50", "setting": "rat, strain Fischer, males, in feed, site: urinary bladder, lesion: several types, types named in the paper, dosed 75 weeks, study length 75 weeks", "result": 26.4, "unit": "mg/kg/day"},
      {"measurement": "TD50", "setting": "rat, strain Fischer, males, in feed, site: urinary bladder, lesion: transitional-cell carcinoma, dosed 75 weeks, study length 75 weeks", "result": 78.2, "unit": "mg/kg/day"},
      {"measurement": "TD50", "setting": "rat, strain Sprague-Dawley, females, in feed, site: any site (literature study), lesion: malignant tumor, dosed 75 weeks, study length 75 weeks", "result": 25.7, "unit": "mg/kg/day"},
      {"measurement": "TD50", "setting": "rat, strain Sprague-Dawley, females, in feed, site: external auditory canal, lesion: squamous-cell carcinoma, dosed 75 weeks, study length 75 weeks", "result": 61.9, "unit": "mg/kg/day"},
      {"measurement": "TD50", "setting": "rat, strain Sprague-Dawley, females, in feed, site: mammary gland, lesion: adenocarcinoma, dosed 75 weeks, study length 75 weeks", "result": 61.9, "unit": "mg/kg/day"},
      {"measurement": "TD50", "setting": "rat, strain Sprague-Dawley, females, in feed, site: urinary bladder, lesion: several types, types named in the paper, dosed 75 weeks, study length 75 weeks", "result": 43.9, "unit": "mg/kg/day"},
      {"measurement": "TD50", "setting": "rat, strain Sprague-Dawley, females, in feed, site: urinary bladder, lesion: transitional-cell carcinoma, dosed 75 weeks, study length 75 weeks", "result": 205, "unit": "mg/kg/day"},
      {"measurement": "TD50", "setting": "rat, strain Sprague-Dawley, males, in feed, site: any site (literature study), lesion: malignant tumor, dosed 75 weeks, study length 75 weeks", "result": 78.2, "unit": "mg/kg/day"},
      {"measurement": "TD50", "setting": "rat, strain Sprague-Dawley, males, in feed, site: kidney, lesion: squamous-cell carcinoma, dosed 75 weeks, study length 75 weeks", "result": 164, "unit": "mg/kg/day"},
      {"measurement": "TD50", "setting": "rat, strain Sprague-Dawley, males, in feed, site: urinary bladder, lesion: transitional-cell papilloma, dosed 75 weeks, study length 75 weeks", "result": 164, "unit": "mg/kg/day"},
      {"measurement": "TD50", "setting": "rat, strain Wistar, females, in feed, site: any site (literature study), lesion: malignant tumor, dosed 75 weeks, study length 75 weeks", "result": 43.9, "unit": "mg/kg/day"},
      {"measurement": "TD50", "setting": "rat, strain Wistar, females, in feed, site: liver, lesion: cystadenoma, dosed 75 weeks, study length 75 weeks", "result": 205, "unit": "mg/kg/day"},
      {"measurement": "TD50", "setting": "rat, strain Wistar, females, in feed, site: mammary gland, lesion: adenocarcinoma, dosed 75 weeks, study length 75 weeks", "result": 97.7, "unit": "mg/kg/day"},
      {"measurement": "TD50", "setting": "rat, strain Wistar, females, in feed, site: urinary bladder, lesion: several types, types named in the paper, dosed 75 weeks, study length 75 weeks", "result": 43.9, "unit": "mg/kg/day"},
      {"measurement": "TD50", "setting": "rat, strain Wistar, females, in feed, site: urinary bladder, lesion: transitional-cell carcinoma, dosed 75 weeks, study length 75 weeks", "result": 97.7, "unit": "mg/kg/day"},
      {"measurement": "TD50", "setting": "rat, strain Wistar, males, in feed, site: any site (literature study), lesion: benign tumor, dosed 84 weeks, study length 84 weeks", "result": 53.3, "unit": "mg/kg/day"},
      {"measurement": "TD50", "setting": "rat, strain Wistar, males, in feed, site: any site (literature study), lesion: malignant tumor, dosed 75 weeks, study length 75 weeks", "result": 26.4, "unit": "mg/kg/day"},
      {"measurement": "carcinogen call", "setting": "rat, strain Wistar, males, in feed, site: any site (literature study), lesion: malignant tumor, dosed 84 weeks, study length 84 weeks", "result": "positive"},
      {"measurement": "TD50", "setting": "rat, strain Wistar, males, in feed, site: external auditory canal, lesion: squamous-cell carcinoma, dosed 75 weeks, study length 75 weeks", "result": 78.2, "unit": "mg/kg/day"},
      {"measurement": "TD50", "setting": "rat, strain Wistar, males, in feed, site: kidney, lesion: squamous-cell carcinoma, dosed 75 weeks, study length 75 weeks", "result": 164, "unit": "mg/kg/day"},
      {"measurement": "TD50", "setting": "rat, strain Wistar, males, in feed, site: urinary bladder, lesion: several types, types named in the paper, dosed 75 weeks, study length 75 weeks", "result": 35.2, "unit": "mg/kg/day"},
      {"measurement": "carcinogen call", "setting": "rat, strain Wistar, males, in feed, site: urinary bladder, lesion: several types, types named in the paper, dosed 84 weeks, study length 84 weeks", "result": "positive"},
      {"measurement": "TD50", "setting": "rat, strain Wistar, males, in feed, site: urinary bladder, lesion: transitional-cell carcinoma, dosed 75 weeks, study length 75 weeks", "result": 78.2, "unit": "mg/kg/day"}
    ]},
    {"smiles": "COc1cccc2c1cc([N+](=O)[O-])c1c(C(=O)O)cc3c(c12)OCO3", "values": [
      {"measurement": "TD50", "setting": "rat, strain Wistar, females, by gavage, site: forestomach, lesion: several types, types named in the paper, dosed 52 weeks, study length 69 weeks", "result": 0.0141, "unit": "mg/kg/day"},
      {"measurement": "TD50", "setting": "rat, strain Wistar, females, by gavage, site: forestomach, lesion: squamous-cell carcinoma, dosed 52 weeks, study length 69 weeks", "result": 0.101, "unit": "mg/kg/day"},
      {"measurement": "TD50", "setting": "rat, strain Wistar, females, by gavage, site: forestomach, lesion: squamous-cell papilloma, dosed 52 weeks, study length 69 weeks", "result": 0.0247, "unit": "mg/kg/day"},
      {"measurement": "carcinogen call", "setting": "rat, strain Wistar, males, by gavage, site: forestomach, lesion: squamous-cell carcinoma, dosed 52 weeks, study length 69 weeks", "result": "positive"}
    ]},
    {"smiles": "Cc1cc(C)nc(-c2ccc([N+](=O)[O-])o2)n1", "values": [
      {"measurement": "carcinogen call", "setting": "rat, strain Sprague-Dawley, females, in feed, site: forestomach, lesion: squamous-cell carcinoma, dosed 42 weeks, study length 59 weeks", "result": "positive"},
      {"measurement": "TD50", "setting": "rat, strain Sprague-Dawley, females, in feed, site: intestine, lesion: hemangioendothelial sarcoma, dosed 42 weeks, study length 59 weeks", "result": 3.43, "unit": "mg/kg/day"},
      {"measurement": "TD50", "setting": "rat, strain Sprague-Dawley, females, in feed, site: intestine, lesion: sarcoma, dosed 42 weeks, study length 59 weeks", "result": 2.61, "unit": "mg/kg/day"},
      {"measurement": "TD50", "setting": "rat, strain Sprague-Dawley, females, in feed, site: kidney, lesion: transitional-cell carcinoma, dosed 42 weeks, study length 59 weeks", "result": 45.5, "unit": "mg/kg/day"},
      {"measurement": "TD50", "setting": "rat, strain Sprague-Dawley, females, in feed, site: mammary gland, lesion: adenocarcinoma, dosed 42 weeks, study length 59 weeks", "result": 6.45, "unit": "mg/kg/day"}
    ]},
    {"smiles": "ClCOCCCCOCCl", "values": [
      {"measurement": "carcinogen call", "setting": "mouse, strain Ha/ICR, females, i.p., site: abdomen, lesion: sarcoma, dosed 81 weeks, study length 81 weeks", "result": "negative (inactive)"}
    ]},
    {"smiles": "O=[N+]([O-])c1ccc(Cl)c([N+](=O)[O-])c1", "values": [
      {"measurement": "TD50", "setting": "mouse, strain CD-1 HaM/ICR, females, in feed, site: any site (literature study), lesion: several types, types named in the paper, dosed 77 weeks, study length 94 weeks", "result": "124 mg/kg/day (inactive)"},
      {"measurement": "TD50", "setting": "mouse, strain CD-1 HaM/ICR, females, in feed, site: liver, lesion: several types, types named in the paper, dosed 77 weeks, study length 94 weeks", "result": "1520 mg/kg/day (inactive)"},
      {"measurement": "TD50", "setting": "mouse, strain CD-1 HaM/ICR, females, in feed, site: lung, lesion: several types, types named in the paper, dosed 77 weeks, study length 94 weeks", "result": "150 mg/kg/day (inactive)"},
      {"measurement": "TD50", "setting": "mouse, strain CD-1 HaM/ICR, males, in feed, site: any site (literature study), lesion: several types, types named in the paper, dosed 77 weeks, study length 94 weeks", "result": "255 mg/kg/day (inactive)"},
      {"measurement": "TD50", "setting": "mouse, strain CD-1 HaM/ICR, males, in feed, site: liver, lesion: several types, types named in the paper, dosed 77 weeks, study length 94 weeks", "result": "365 mg/kg/day (inactive)"},
      {"measurement": "TD50", "setting": "mouse, strain CD-1 HaM/ICR, males, in feed, site: lung, lesion: several types, types named in the paper, dosed 77 weeks, study length 94 weeks", "result": "541 mg/kg/day (inactive)"},
      {"measurement": "TD50", "setting": "rat, strain Charles River CD (Sprague-Dawley), males, in feed, site: any site (literature study), lesion: several types, types named in the paper, dosed 77 weeks, study length 103 weeks", "result": "12.3 mg/kg/day (inactive)"},
      {"measurement": "carcinogen call", "setting": "rat, strain Charles River CD (Sprague-Dawley), males, in feed, site: liver, lesion: several types, types named in the paper, dosed 77 weeks, study length 103 weeks", "result": "negative (inactive)"}
    ]},
    {"smiles": "Brc1cc(-c2ccc(Br)c(Br)c2Br)cc(Br)c1Br", "values": [
      {"measurement": "TD50", "setting": "rat, strain Sprague-Dawley Spartan, females, in feed, site: any site (literature study), lesion: several types, types named in the paper, dosed 57 weeks, study length 57 weeks", "result": "5.91 mg/kg/day (inactive)"},
      {"measurement": "carcinogen call", "setting": "rat, strain Sprague-Dawley Spartan, females, in feed, site: liver, lesion: one or several types, types not named, dosed 57 weeks, study length 57 weeks", "result": "negative (inactive)"}
    ]},
    {"smiles": "COC(=O)C1=C(C)NC(C)=C(C(=O)OCCN2CCN(C(c3ccccc3)c3ccccc3)CC2)C1c1cccc([N+](=O)[O-])c1", "note": "(centres undefined)", "values": [
      {"measurement": "TD50", "setting": "mouse, strain ICR, females, in feed, site: liver, lesion: hepatocellular adenoma, dosed 78 weeks, study length 78 weeks", "result": "545 mg/kg/day (inactive)"},
      {"measurement": "TD50", "setting": "mouse, strain ICR, females, in feed, site: lung, lesion: alveolar/bronchiolar adenoma, dosed 78 weeks, study length 78 weeks", "result": "438 mg/kg/day (inactive)"},
      {"measurement": "carcinogen call", "setting": "mouse, strain ICR, males, in feed, site: liver, lesion: hepatocellular adenoma, dosed 78 weeks, study length 78 weeks", "result": "negative (inactive)"},
      {"measurement": "carcinogen call", "setting": "mouse, strain ICR, males, in feed, site: liver, lesion: hepatocellular carcinoma, dosed 78 weeks, study length 78 weeks", "result": "negative (inactive)"},
      {"measurement": "carcinogen call", "setting": "mouse, strain ICR, males, in feed, site: lung, lesion: alveolar/bronchiolar adenoma, dosed 78 weeks, study length 78 weeks", "result": "negative (inactive)"},
      {"measurement": "TD50", "setting": "rat, strain Charles River CD (Sprague-Dawley), females, in feed, site: liver, lesion: hepatocellular adenoma, dosed 104 weeks, study length 104 weeks", "result": "157 mg/kg/day (inactive)"},
      {"measurement": "carcinogen call", "setting": "rat, strain Charles River CD (Sprague-Dawley), females, in feed, site: liver, lesion: hepatocellular carcinoma, dosed 104 weeks, study length 104 weeks", "result": "negative (inactive)"},
      {"measurement": "TD50", "setting": "rat, strain Charles River CD (Sprague-Dawley), males, in feed, site: liver, lesion: hepatocellular adenoma, dosed 104 weeks, study length 104 weeks", "result": "8240 mg/kg/day (inactive)"},
      {"measurement": "TD50", "setting": "rat, strain Charles River CD (Sprague-Dawley), males, in feed, site: liver, lesion: hepatocellular carcinoma, dosed 104 weeks, study length 104 weeks", "result": "405 mg/kg/day (inactive)"}
    ]}
  ]
}
